This is an account of results in US9056837B2, “Heterocycle compounds and uses thereof” (Intra-Cellular Therapies, Inc., priority 2007, dated 2015).

The nature of this data set: Mouse brain/plasma distribution assay for tissue levels of test compounds. The format is in vivo, C57b1/6 black mice. The settings on record: C57Bl/6, mouse, brain, sc; mice, subcutaneous single injection of 1 mg (10 mM DMSO solution); four hours post-administration; measured minus 2% of plasma. Here is the method:
Compounds are administered subcutaneously to C57b1/6 black mice as a single injection of 1 mg using a 10 mM DMSO solution. After 2 or 4 hours, the mice are sacrificed. Trunk blood is collected into tubes with potassium-EDTA as anticoagulant and centrifuged at 5000×g for 10 min. The upper plasma phase is decanted from cellular components. Whole brain is sonicated with 20 mM Tris-HCl, 135 mM NaCl, pH 7.4 buffer, giving at 200 mg/mL (w/v) homogenate. Brain homogenate or plasma is extracted with 2 volumes of acetonitrile and clarified by centrifugation at 15,000×g for 20 min. Extracts are separated by HPLC using a Waters Alliance 2695 separations module with a Sunfire™ C18 column (3.5 micron, 2.1×50 mm) and a gradient of methanol over 15 min in a mobile phase of 0.1% formic acid. The separation is monitored by a Micromass Quattro Micro triple-quadrupole mass-spectrometric detector. Compound standardization is performed by methods analogous to those previously reported, e.g., by Zhao, M., et al. (2005) J Chromatogr B Analyt Technol Biomed Life Sci 819, 73-80; and Appels, N. M et al. (2005) Rapid Commun Mass Spectrom 19, 2187-2192. Brain concentration=measured−2% of plasma B/P ratio=brain concentration/plasma concentration

The structures appear in SMILES notation.

As for `Cc1ccc(NC(=O)c2ccc(CN3CCN(C)CC3)cc2)cc1Nc1nccc(-c2cccnc2)n1` [imatinib], the concentration at 4 h was under 100 nM.
